Test results as given in article PMC10254030, “Photoactivatable Heptamethine-Based Carbonic Anhydrase Inhibitors Leading to New Anti-Antibacterial Agents” (International Journal of Molecular Sciences, 2023).
pKi: −log10 of the molar value. Where two headings read alike, the source gives them in different places.

Legend:
hCA I = target: T1, hCA I (Homo sapiens, UniProt P00915); assay: stopped-flow CO2 hydrase assay, hCA I; format: biochemical; conditions: for pKi: stopped-flow CO2 hydrase assay, pH 7.4, mean from 3 assays
T1 construct: made in house
T1 sequence (P00915 whole entry): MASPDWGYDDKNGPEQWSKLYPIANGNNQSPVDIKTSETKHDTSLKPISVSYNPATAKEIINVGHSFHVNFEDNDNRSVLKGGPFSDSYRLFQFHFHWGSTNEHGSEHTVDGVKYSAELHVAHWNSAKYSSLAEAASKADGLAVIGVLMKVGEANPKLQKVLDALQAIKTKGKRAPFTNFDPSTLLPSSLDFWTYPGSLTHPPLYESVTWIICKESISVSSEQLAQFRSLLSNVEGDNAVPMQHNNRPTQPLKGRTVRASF
Protocol: (§1) The CA isoforms belong to different classes of CA enzymes characterized by different kinetic and structural features to assess isoform selectivity.
(§2) An Applied Photophysics stopped-flow instrument was used to assay CA-catalyzed CO2 hydration activity. […] The uncatalyzed rates were determined in the same manner and subtracted from the total observed rates. Stock solutions of the inhibitor (0.1 mM) were prepared in distilled–deionized water, and dilutions up to 0.01 nM were done thereafter with the assay buffer. Inhibitor and enzyme solutions were preincubated together for 15 min at room temperature prior to the assay to allow for the formation of the E–I complex. The inhibition constants were obtained by non-linear least-squares methods using PRISM 3 and the Cheng–Prusoff equation as reported earlier and represent the mean from at least three different determinations. All CA isoforms were recombinant proteins obtained in house, as reported earlier.

hCA II = target: T2, hCA II (Homo sapiens, UniProt P00918); assay: stopped-flow CO2 hydrase assay, hCA II; format: biochemical; conditions: pH 7.4, mean from 3 assays
T2 construct: made in house
Protocol: as §1, §2

E. coli β = target: T3, E. coli β (Escherichia coli, UniProt P61517); assay: stopped-flow CO2 hydrase assay, E. coli β; format: biochemical; conditions: pH 8.4, mean from 3 assays
T3 construct: made in house
T3 sequence (P61517 whole entry): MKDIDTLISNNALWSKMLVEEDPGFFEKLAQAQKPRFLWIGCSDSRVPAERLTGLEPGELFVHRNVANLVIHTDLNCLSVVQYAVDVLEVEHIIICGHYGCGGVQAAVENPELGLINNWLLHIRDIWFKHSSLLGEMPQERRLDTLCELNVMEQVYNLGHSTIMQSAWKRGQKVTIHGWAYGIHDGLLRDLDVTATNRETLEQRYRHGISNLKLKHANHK
Protocol: as §1
An Applied Photophysics stopped-flow instrument was used to assay CA-catalyzed CO2 hydration activity. Phenol red (at a concentration of 0.2 mM) was used as an indicator, working at the absorbance maximum of 557 nm, with 20 mM Hepes (pH 7.4 for α-class and pH 8.4 for β- and γ-classes) as a buffer and 20 mM Na2SO4 (to maintain constant the ionic strength), following the initial rates of the CA-catalyzed CO2 hydration reaction for a period of 10–100 s. The CO2 concentrations ranged from 1.7 to 17 mM for the determination of the kinetic parameters and inhibition constants. Enzyme concentrations ranged between 5 and 12 nM. For each inhibitor, at least six traces of the initial 5–10% of the reaction were used to determine the initial velocity. The uncatalyzed rates were determined in the same manner and subtracted from the total observed rates. Stock solutions of the inhibitor (0.1 mM) were prepared in distilled–deionized water, and dilutions up to 0.01 nM were done thereafter with the assay buffer. Inhibitor and enzyme solutions were preincubated together for 15 min at room temperature prior to the assay to allow for the formation of the E–I complex. The inhibition constants were obtained by non-linear least-squares methods using PRISM 3 and the Cheng–Prusoff equation as reported earlier and represent the mean from at least three different determinations. All CA isoforms were recombinant proteins obtained in house, as reported earlier.

E. coli γ = E. coli γ (Escherichia coli, UniProt P0A9W9); format: biochemical; conditions: stopped-flow CO2 hydrase assay, pH 8.4, mean from 3 assays
E. coli γ, sequence (P0A9W9 whole entry): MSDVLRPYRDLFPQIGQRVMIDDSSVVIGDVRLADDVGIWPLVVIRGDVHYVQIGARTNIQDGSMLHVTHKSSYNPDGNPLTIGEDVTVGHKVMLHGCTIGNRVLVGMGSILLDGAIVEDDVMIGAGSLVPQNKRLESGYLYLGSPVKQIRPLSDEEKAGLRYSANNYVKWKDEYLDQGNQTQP
Protocol: as §1, §2

PsCA1 = PsCA1 (Pseudomonas aeruginosa, UniProt Q9I730); assay: biochemical; conditions: stopped-flow CO2 hydrase assay, mean from 3 assays
PsCA1, sequence (Q9I730 entry or part of it): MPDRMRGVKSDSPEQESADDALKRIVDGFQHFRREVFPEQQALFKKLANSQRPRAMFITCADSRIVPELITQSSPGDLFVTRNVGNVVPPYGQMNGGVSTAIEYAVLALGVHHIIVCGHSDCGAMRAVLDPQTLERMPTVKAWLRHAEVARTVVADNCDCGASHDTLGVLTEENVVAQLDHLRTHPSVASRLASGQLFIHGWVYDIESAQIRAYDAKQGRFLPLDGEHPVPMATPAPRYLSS
Protocol: as §1, §2

PsCA3 = target: T4, PsCA3 (Pseudomonas aeruginosa, UniProt Q9HVB9); assay: biochemical; conditions: stopped-flow CO2 hydrase assay, mean from 3 assays
T4 construct: made in house
T4 sequence (Q9HVB9 1-215): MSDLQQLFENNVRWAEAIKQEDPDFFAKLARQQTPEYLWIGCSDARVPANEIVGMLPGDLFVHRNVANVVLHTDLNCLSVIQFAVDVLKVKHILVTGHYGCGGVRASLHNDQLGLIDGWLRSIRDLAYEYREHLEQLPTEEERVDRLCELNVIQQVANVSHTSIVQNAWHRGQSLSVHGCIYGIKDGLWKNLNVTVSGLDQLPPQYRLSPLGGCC
Protocol: as §1, §2

E. faecalis = assay: MIC and MBC test (NF EN ISO 20776-1), E. faecalis; format: cell-based, Enterococcus faecalis; conditions: for MIC: Enterococcus faecalis; for MBC E. faecalis: bacteriostatic or bactericidal effect, tested up to 8 × MIC
Protocol: (§3) Derivatives 2a–f were dissolved in DMSO and further diluted with distilled water to the required final concentration. The microorganisms (E. faecalis, S. aureus, and S. epidermidis reported in Table 4) were cultured overnight at 35 °C in Mueller Hinton Broth 2, Cation-Adjusted (BD, BD 212322, New York, NY, USA) and adjusted to 0.5 McFarland, according to standardized guidelines NF EN ISO 20776-1 [23]. The minimal inhibitory concentration (MIC) test was performed according to the standardized guidelines NF EN ISO 20776-1 [23]. Once the MIC was obtained, the minimal bactericidal concentration (MBC) test was performed.

S. aureus = assay: MIC and MBC test (NF EN ISO 20776-1), S. aureus; format: cell-based, Staphylococcus aureus; conditions: for MIC: Staphylococcus aureus, ATCC29213, light or radiation study; for MBC S. aureus: bacteriostatic or bactericidal effect, tested up to 8 × MIC
Protocol: as §3

S. epidermidis [1] = assay: MIC and MBC test (NF EN ISO 20776-1), S. epidermidis; format: cell-based, Staphylococcus epidermidis; conditions: for MIC: Staphylococcus epidermidis, ATCC14990, light or radiation study
Protocol: as §3

S. epidermidis [2] = assay: photoactivity assay, irradiation with 652 nm laser; format: cell-based, Staphylococcus epidermidis; conditions: 652 nm laser 47 min, 30 J/cm2, 2c and 2d at 64 μg/mL, others at MIC
Protocol: Upon incubation of 1.5–2 h with the products, the samples were irradiated for 47 min with a 652 nm laser (to obtain 1.70 W, 30 J/cm^2). Upon irradiation, the cells were plated and incubated overnight at 35 °C on Mueller Hinton Agar (BD, 225250, New York, NY, USA).

MRC-5 cells = assay: cytotoxicity, MTT assay; format: cell-based, human; conditions: MRC5; cytotoxicity, human lung fibroblasts, 24 h, MTT
Protocol: The cytotoxicity of the products was tested on MRC-5 cells (lung fibroblasts, ATCC CCL-171) with a seeding concentration of 10,000 cells/well. The products were diluted with a 2% FSC MEM medium (Sigma, M4655, Missouri, MO, USA) to concentrations ranging from 1 to 256 μg/mL and incubated with 80% confluent cells for 24 h. The following day, a 3-[4,5-dimethylthiazol-2-yl]-2,5-diphenyl tetrazolium bromide (MTT) assay was performed, and the optical density of the samples was measured at 540 nm.

human red blood cells = assay: hemolysis assay; format: cell-based; conditions: 0.5–150 µg/mL, 30 min 37 °C, compared with 0.01% Tween 20
Protocol: Blood collected at CHU Nancy was washed three times with PBS, and 10^7 cells/mL were incubated for 30 min at 37 °C with the newly synthesized compounds. The derivatives were previously diluted to the range from 0.5 to 75/150 μg/mL with PBS. As a positive control, cells were resuspended with 0.01% polysorbate 20 (Tween 20). Tween 20 has often been used as a reference compound for cell lysis. Upon incubation, the samples were centrifuged for 5 min at 800× g, and the supernatant was collected for optical density reading at 540 nm.

[3] = light or radiation study, clinical isolate, without irradiation, read-out: MIC E. faecalis
[4] = ATCC 29213, without irradiation
[5] = ATCC 14990, without irradiation
[6] = bacteriostatic or bactericidal effect, tested up to 8 × MIC
[7] = span over the four compounds and both strains, read-out: MIC against the E. faecalis and S. aureus strains

SMILES | pKi (hCA I) | pKi (hCA II) | pKi (E. coli β) | pKi (E. coli γ) | pKi (PsCA1) | pKi (PsCA3) | MIC (E. faecalis; [3]) [µg/mL] | MBC E. faecalis (E. faecalis) | MIC (S. aureus; [4]) [µg/mL] | MBC S. aureus (S. aureus) | MIC (S. epidermidis [1]; [5]) [µg/mL] | MBC S. epidermidis (S. epidermidis [1]; Table 3) | MBC S. epidermidis (S. epidermidis [1]; [6]) | Growth Reduction (S. epidermidis [2]) [log reduction] | IC50 (MRC-5 cells) [µg/mL] | hemolysis activity, cytotoxicity to human red blood cells (human red blood cells) | MIC (E. faecalis; [7]) [µg/mL] | also measured
CC1(C)C(/C=C/C2=C(NCCNC(=O)Nc3ccc(S(N)(=O)=O)cc3)C(=C/C=C3\N(CCCCS(=O)(=O)O)c4ccc5ccccc5c4C3(C)C)/CCC2)=[N+](CCCCS(=O)(=O)[O-])c2ccc3ccccc3c21 [Compound 2d] | 6.03 | 6.74 | 7.16 | 6.95 | 7.05 | 7.09 | > 256 | > 256 µg/mL | > 256 | > 256 µg/mL | > 256 | > 256 µg/mL | > 256 µg/mL | 1 | > 256 | significant cytotoxicity |  | MIC E. faecalis (E. faecalis; clinical isolate, without irradiation): over 256 µg/mL; MIC S. aureus (S. aureus; [4]): over 256 µg/mL; MIC S. epidermidis (S. epidermidis [1]; [5]): over 256 µg/mL
CN1C(=CC=C2CCCC(C=CC3=[N+](C)c4ccc5ccccc5c4C3(C)C)=C2NCCc2ccc(S(N)(=O)=O)cc2)C(C)(C)c2c1ccc1ccccc21 [Compound 2e] | 6.07 | 6.80 | 7.13 | 6.96 | 7.15 | 7.11 | 16 to 64 | bactericidal | 8 to 32 | bactericidal | 1 to 4 | bactericidal | bactericidal |  | 2 | not cytotoxic | 8 to 128 | 
CN1C(=CC=C2CCCC(C=CC3=[N+](C)c4ccc5ccccc5c4C3(C)C)=C2NCCNC(=O)Nc2ccc(S(N)(=O)=O)cc2)C(C)(C)c2c1ccc1ccccc21 [Compound 2f] | 5.41 | 6.20 | 7.19 | 6.91 | 7.23 | 7.02 | 32 to 128 | bactericidal | 16 to 64 | bacteriostatic | 2 to 8 | bacteriostatic | bacteriostatic | 1 | 78.8 | not cytotoxic | 8 to 128 | selectivity for all assayed bacterial isoforms (hCA I; bacterial CA isoforms versus the human off-target hCA I and II): ~10 fold; selectivity index (SI) against S. epidermidis (S. epidermidis [1]; ratio between cytotoxicity in μg/mL and the MIC value in μg/mL): highest SI
